Experimental data as given in patent US20150099721A1, “TREATING CANCER WITH HSP90 INHIBITORY COMPOUNDS” (Synta Pharmaceuticals Corp., priority 2012, published 2015).
Entries after “also recorded” stand apart in the source; their conditions may differ.

How the values were obtained:
[1] = test system: SLC34A2-ROS expressing HCC78 NSCLC cells; assay: Cell viability (Cell Titer-Glo) in HCC78 cells; format: cell-based, human; conditions: for IC50: Homo sapiens, 72 hr exposure (FIG. 1A), read-out: IC50, loss of HCC78 cell viability; for cells killed by single agent: drug on its own (FIG. 1C)
Experimental: (§1) Human HCC78 NSCLC cells and human TPC-1 thyroid cancer cells were obtained from Dr. Steve Morris (St. Jude's) and grown in RPMI in the presence of fetal bovine serum (10%), 2 mM L-glutamine and antibiotics (100 IU/ml penicillin and 100 μg/ml streptomycin) purchased from Sigma Aldrich. Cells were maintained at 37° C., 5% CO2 atmosphere.
(§2) Cell viability was measured using the Cell Titer-Glo assay (Promega). In brief, cells were plated in 96-well plates in triplicate at optimal seeding density (determined empirically for each cell line) and incubated at 37° C., 5% CO2 atmosphere for 24 hr prior to the addition of drug or vehicle (0.3% DMSO) to the culture medium. At the end of the assay, Cell Titer-Glow was added to the wells per manufactures recommendation, shaken for two minutes and incubated for 10 minutes at room temperature. Luminescence (0.1 sec) was measured with a Victor II microplate reader (Perkin Elmer) and the resulting data were used to calculate cell viability, normalized to vehicle control.
(§3) Chromosomal rearrangements involving ROS kinase have been reported in several tumor types, including non-small cell lung cancer (NSCLC) and glioblastoma. […] See, e.g., Ting-Lei Gu et al, PLoS One. 2011; 6(1):e15640. To determine if inhibition of Hsp90 affects the activity of ROS fusion kinases and viability of cells driven by such fusions, SLC34A2-ROS expressing HCC78 NSCLC cells were treated with ganetespib and both viability and protein activity was assessed. […] See, e.g., Chenguang Li et al, PLoS One. 2011; 6(11):e28204. […] To determine if ganetespib affects the constitutive activity of ROS, HCC78 cells were treated with ganetespib for 24 hr and the phosphorylation of ROS was assayed by Western blot. […] In addition to SLC34A2-ROS, other ROS chimeras have been identified including CD74-ROS and FIG-ROS. Show in FIG. 1D, Ba/F3 cells stably expressing either CD74-ROS or FIG-ROS were treated with ganetespib for 24 hr and activity of ROS was determined by Western blot.

[2] = test system: cancer cells driven by oncogenic ROS1 fusion; assay: Viability of cancer cells driven by oncogenic ROS1 fusion (FIGS. 3-4); format: cell-based; conditions: FIG. 3, FIG. 4
Experimental: as §2

[3] = test system: ROS (SLC34A2-ROS) in HCC78 cells; assay: Western blot of ROS phosphorylation in HCC78 cells; format: cell-based, human; conditions: 24 hr, 250 nM (FIG. 1B)
Excerpt: (§4) Cells, treated with compound for 24 hr, were lysed in RIPA buffer (CST, Danvers, Mass., USA) on ice and clarified by centrifugation. Equal amounts of proteins were resolved by SDS-PAGE and immunoblotted with indicated antibodies (CST). The antigen-antibody complex was visualized and quantitated using an Odyssey system (LI-COR, Lincoln, Nebr., USA).
as §3

[4] = test system: CD74-ROS; assay: Western blot of ROS phosphorylation in Ba/F3 cells expressing CD74-ROS; format: cell-based; conditions: 24 hr, 100 nM (FIG. 1D)
Excerpt: as §4, §3

[5] = test system: FIG-ROS; assay: Western blot of ROS phosphorylation in Ba/F3 cells expressing FIG-ROS; format: cell-based; conditions: 24 hr, 100 nM (FIG. 1D)
Excerpt: as §4, §3

[6] = test system: CCDC6-RET; assay: Western blot in TPC-1 cells (CCDC6-RET, ERK, PARP); format: cell-based, human; conditions: 24 hr (FIG. 2)
Experimental: as §1, §4
(§5) Recently, fusions of the RET kinase have also been detected in NSCLC. See, e.g., Fei Li et al, Cell Research (2012), 1-4. One such fusion, CCDC6-RET, was determined to be present in ˜1% of lung adenocarcinomas from never smokers. To investigate whether ganetespib modulates the activity and stability of RET fusions, CCDC6-RET expressing TPC-1 thyroid cancer cells were used as a model.

[7] = test system: CCDC6-RET expressing TPC-1 thyroid cancer cells; assay: Cell viability in TPC-1 cells; format: cell-based, human; conditions: 72 hr (FIG. 2A, FIG. 7)
Experimental: as §1, §2, §5

[8] = test system: ROS1 fusion protein; assay: Degradation of ROS1 fusion protein (FIG. 5); format: cell-based
Excerpt: as §4

SMILES | IC50 [1] [nM] | cells killed by single agent [1] | viability of cancer cells driven by oncogenic ROS1 fusion [2] | phosphorylation of ROS [3] | activity (phosphorylation) of CD74-ROS [4] | activity (phosphorylation) of FIG-ROS [5] | ERK activity [6] | PARP cleavage [6] | degradation of total and phosphorylated CCDC6-RET [6] | cell death / viability of TPC-1 cells [7] | degradation of ROS1 fusion protein [8]
C[C@@H](Oc1cc(-c2cnn(C3CCNCC3)c2)cnc1N)c1c(Cl)ccc(F)c1Cl [crizotinib, reference compound] | 1040 | approximately 50% | inhibited viability | – | – | – | – | – | – | – | –
CC(C)c1cc(-c2nnc(O)n2-c2ccc3c(ccn3C)c2)c(O)cc1O [ganetespib, 3-(2,4-DIHYDROXY-5- ISOPROPYL-PHENYL)-4-(1- METHYL-INDOL-5-YL)-5- HYDROXY-[1,2,4] TRIAZOLE (GANETESPIB)] | 17 | approximately 50% | inhibited viability; also recorded: significantly inhibited the viability of more cancer cells | significant dephosphorylation of ROS | effectively reduces the activity | effectively reduces the activity | deactivation of ERK | cleavage of the pro-apoptotic protein PARP | potently induced the degradation | resulting in cell death; also recorded: significantly inhibited the viability | leads to degradation of ROS1 fusion protein
